Measurements published in US20100298141A1, “SUBSTITUTED PYRIDINE N-OXIDE HERBICIDES” (E. I. DU PONT DE NEMOURS AND COMPANY, priority 2007, published 2010).

Tests used:
blackgrass = test: Test D preemergence test; format: in vivo, Alopecurus myosuroides; settings: scale 0 to 100
Description: (§1) Seeds of plant species selected from annual bluegrass (Poa annua), blackgrass (Alopecurus myosuroides), downy bromegrass (Bromus tectorum), field violet (Viola arvensis), green foxtail (Setaria viridis), Italian ryegrass (Lolium multiflorum), littleseed canarygrass (Phalaris minor), spring wheat (Triticum aestivum), wild oat (Avena fatua), […]), winter barley (Hordeum vulgare), and winter wheat (Triticum aestivum) were planted and treated preemergence with test chemicals formulated in a non-phytotoxic solvent mixture which included a surfactant. […] A dash (-) response means no test result.

Italian ryegrass = test: Test D preemergence test; format: in vivo, Lolium multiflorum; settings: scale 0 to 100
Description: as §1

spring wheat = test: Test D preemergence test; format: in vivo, Triticum aestivum; settings: scale 0 to 100
In short: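 Seeds planted and treated preemergence with test chemicals formulated in a non-phytotoxic solvent mixture containing surfactant. A dash means no test result.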

sugarcane = test: Test F pre-/postemergence test; format: in vivo, Saccharum officinarum; settings: for Sugarcane plant response rating: postemergence
Description: Seeds of plant species selected from bermudagrass (Cynodon dactylon), Surinam grass (Brachiaria decumbens), large crabgrass (Digitaria sanguinalis), green foxtail (Setaria viridis), goosegrass (Eleusine indica), johnsongrass (Sorghum halepense), kochia (Kochia scoparia), pitted morningglory (Ipomoea lacunosa), purple nutsedge (Cyperus rotundus), common ragweed (Ambrosia elation), mustard (Brassica nigra), guineagrass (Panicum maximum), […] (Paspalum dilatatum), barnyardgrass (Echinochloa crus-galli), southern sandbur (Cenchrus echinatus), common sowthistle (Sonchus oleraceous), prickly […] spinosa), Italian ryegrass (Lolium multiflorum), common purslane (Portulaca oleracea), broadleaf signalgrass (Brachiaria platyphylla), common groundsel (Senecio vulgaris), common chickweed (Stellaria media), Virginia dayflower (Commelina virginica), annual bluegrass (Poa annua), naked crabgrass (Digitaria nuda), […] cochinchinensis), quackgrass (Elytrigia repens), Canada horseweed (Conyza canadensis), field bindweed (Convolvulus arvensis), […] (Bidens bipinnata), common mallow (Malva sylvestris), Russian thistle (Salsola kali), and sugarcane (Saccharum officinarum) were planted and treated preemergence with test chemicals formulated in a non-phytotoxic solvent mixture which included a surfactant. At a different time, sugarcane was treated with postemergence applications of some of the test chemicals formulated in the same manner. Plants were approximately 3- to 4-leaf stage for the postemergence treatments. Treated plants and controls were maintained in a greenhouse for 14 to 21 days, after which time all species were compared to controls and visually evaluated. […] A dash (-) response means no test result.

cotton = test: Test G preemergence test; format: in vivo, Gossypium hirsutum; settings: scale 0 to 100
fall panicum = test: Test G preemergence test; format: in vivo, Panicum dichotomiflorum; settings: scale 0 to 100
itchgrass = test: Test G preemergence test; format: in vivo, Rottboellia cochinchinensis; settings: scale 0 to 100
sorghum = test: Test G preemergence test; format: in vivo, Sorghum vulgare; settings: scale 0 to 100
yellow foxtail = test: Test G preemergence test; format: in vivo, Pennisetum glaucum; settings: scale 0 to 100
yellow nutsedge = test: Test G preemergence test; format: in vivo, Cyperus esculentus; settings: scale 0 to 100
Redstem = test: Test C flooded paddy test; format: in vivo; settings: Flood
Description: (§2) At time of treatment, test pots were flooded to 3 cm above the soil surface, treated by application of test compounds directly to the paddy water, and then maintained at that water depth for the duration of the test. Treated plants and controls were maintained in a greenhouse for 13 to 15 days, after which time all species were compared to controls and visually evaluated. […] A dash (-) response means no test result.

Ricefield Bulrush = test: Test C flooded paddy test; format: in vivo; settings: Flood
Description: as §2

[1] = 31 g ai/ha, scale 0 to 100 (0 no effect, 100 complete control)
[2] = 62 g ai/ha, scale 0 to 100, 0 no effect, 100 complete control, 13 to 15 days
[3] = 125 g ai/ha, scale 0 to 100, 0 no effect, 100 complete control, 13 to 15 days
[4] = 250 g ai/ha, scale 0 to 100 (0 no effect, 100 complete control)
[5] = 250 g ai/ha, preemergence, scale 0 to 100

SMILES: Cc1cc[n+]([O-])c(S(=O)(=O)Cc2c(C(F)(F)F)nn(C)c2OC(F)F)c1 [Compound 2]
- Plant response rating, Blackgrass (blackgrass; 31 g ai/ha): 0
- Plant response rating, Blackgrass (blackgrass; 62 g ai/ha): 70
- Plant response rating, Blackgrass (blackgrass; 125 g ai/ha): 100
- Plant response rating, Blackgrass (blackgrass; 250 g ai/ha): 100
- Plant response rating, Ryegrass, Italian (Italian ryegrass; 31 g ai/ha): 0
- Plant response rating, Ryegrass, Italian (Italian ryegrass; 62 g ai/ha): 0
- Plant response rating, Ryegrass, Italian (Italian ryegrass; 125 g ai/ha): 30
- Plant response rating, Ryegrass, Italian (Italian ryegrass; 250 g ai/ha): 50
- Plant response rating, Wheat, Spring (spring wheat; 31 g ai/ha): 0
- Plant response rating, Wheat, Spring (spring wheat; 62 g ai/ha): 0
- Plant response rating, Wheat, Spring (spring wheat; 125 g ai/ha): 0
- Plant response rating, Wheat, Spring (spring wheat; 250 g ai/ha): 15
- Plant response rating, Sugarcane (sugarcane; 125 g ai/ha, preemergence, scale 0 to 100): 70
- Plant response rating, Sugarcane (sugarcane; 500 g ai/ha, preemergence, scale 0 to 100): 83
- Plant response rating, Cotton (cotton; 31 g ai/ha): 0
- Plant response rating, Cotton (cotton; 62 g ai/ha): 0
- Plant response rating, Cotton (cotton; 125 g ai/ha): 0
- Plant response rating, Cotton (cotton; 250 g ai/ha): 0
- Plant response rating, Fall Panicum (fall panicum; 31 g ai/ha): 25
- Plant response rating, Fall Panicum (fall panicum; 62 g ai/ha): 65
- Plant response rating, Fall Panicum (fall panicum; 125 g ai/ha): 100
- Plant response rating, Fall Panicum (fall panicum; 250 g ai/ha): 100
- Plant response rating, Itchgrass (itchgrass; 31 g ai/ha): 0
- Plant response rating, Itchgrass (itchgrass; 62 g ai/ha): 15
- Plant response rating, Itchgrass (itchgrass; 125 g ai/ha): 30
- Plant response rating, Itchgrass (itchgrass; 250 g ai/ha): 50
- Plant response rating, Sorghum (sorghum; 31 g ai/ha): 0
- Plant response rating, Sorghum (sorghum; 62 g ai/ha): 0
- Plant response rating, Sorghum (sorghum; 125 g ai/ha): 60
- Plant response rating, Sorghum (sorghum; 250 g ai/ha): 100
- Plant response rating, Foxtail, Yellow (yellow foxtail; 31 g ai/ha): 0
- Plant response rating, Foxtail, Yellow (yellow foxtail; 62 g ai/ha): 20
- Plant response rating, Foxtail, Yellow (yellow foxtail; 125 g ai/ha): 100
- Plant response rating, Foxtail, Yellow (yellow foxtail; 250 g ai/ha): 100
- Plant response rating, Nutsedge, Yellow (yellow nutsedge; 31 g ai/ha): 0
- Plant response rating, Nutsedge, Yellow (yellow nutsedge; 62 g ai/ha): 0
- Plant response rating, Nutsedge, Yellow (yellow nutsedge; 125 g ai/ha): 35
- Plant response rating, Nutsedge, Yellow (yellow nutsedge; 250 g ai/ha): 75
- Plant response rating, Redstem (Redstem; [1]): 0
- Plant response rating, Redstem (Redstem; [2]): 30
- Plant response rating, Redstem (Redstem; [3]): 65
- Plant response rating, Redstem (Redstem; [4]): 85
- Plant response rating, Ricefield Bulrush (Ricefield Bulrush; [1]): 20
- Plant response rating, Ricefield Bulrush (Ricefield Bulrush; [2]): 20
- Plant response rating, Ricefield Bulrush (Ricefield Bulrush; [3]): 45
- Plant response rating, Ricefield Bulrush (Ricefield Bulrush; [4]): 80

SMILES: Cn1nc(C(F)(F)F)c(C[S+]([O-])c2cccc[n+]2[O-])c1OC(F)F (stereo not drawn) [Compound 3]
- Plant response rating, Blackgrass (blackgrass; 31 g ai/ha): 0
- Plant response rating, Blackgrass (blackgrass; 62 g ai/ha): 20
- Plant response rating, Blackgrass (blackgrass; 125 g ai/ha): 100
- Plant response rating, Blackgrass (blackgrass; 250 g ai/ha): 100
- Plant response rating, Ryegrass, Italian (Italian ryegrass; 31 g ai/ha): 0
- Plant response rating, Ryegrass, Italian (Italian ryegrass; 62 g ai/ha): 35
- Plant response rating, Ryegrass, Italian (Italian ryegrass; 125 g ai/ha): 45
- Plant response rating, Ryegrass, Italian (Italian ryegrass; 250 g ai/ha): 95
- Plant response rating, Wheat, Spring (spring wheat; 31 g ai/ha): 0
- Plant response rating, Wheat, Spring (spring wheat; 62 g ai/ha): 0
- Plant response rating, Wheat, Spring (spring wheat; 125 g ai/ha): 15
- Plant response rating, Wheat, Spring (spring wheat; 250 g ai/ha): 20
- Plant response rating, Sugarcane (sugarcane; 62 g ai/ha, Preemergence, scale 0 to 100): 17
- Sugarcane plant response rating (sugarcane; 62 g ai/ha, scale 0 to 100): 32
- Sugarcane plant response rating (sugarcane; [4]): 50
- Plant response rating, Sugarcane (sugarcane; [5]): 50
- Plant response rating, Cotton (cotton; 31 g ai/ha): 0
- Plant response rating, Cotton (cotton; 62 g ai/ha): 0
- Plant response rating, Cotton (cotton; 125 g ai/ha): 10
- Plant response rating, Cotton (cotton; 250 g ai/ha): 25
- Plant response rating, Fall Panicum (fall panicum; 31 g ai/ha): 0
- Plant response rating, Fall Panicum (fall panicum; 62 g ai/ha): 40
- Plant response rating, Fall Panicum (fall panicum; 125 g ai/ha): 90
- Plant response rating, Fall Panicum (fall panicum; 250 g ai/ha): 95
- Plant response rating, Itchgrass (itchgrass; 31 g ai/ha): 0
- Plant response rating, Itchgrass (itchgrass; 62 g ai/ha): 45
- Plant response rating, Itchgrass (itchgrass; 125 g ai/ha): 60
- Plant response rating, Itchgrass (itchgrass; 250 g ai/ha): 90
- Plant response rating, Sorghum (sorghum; 31 g ai/ha): 0
- Plant response rating, Sorghum (sorghum; 62 g ai/ha): 10
- Plant response rating, Sorghum (sorghum; 125 g ai/ha): 55
- Plant response rating, Sorghum (sorghum; 250 g ai/ha): 100
- Plant response rating, Foxtail, Yellow (yellow foxtail; 31 g ai/ha): 0
- Plant response rating, Foxtail, Yellow (yellow foxtail; 62 g ai/ha): 75
- Plant response rating, Foxtail, Yellow (yellow foxtail; 125 g ai/ha): 100
- Plant response rating, Foxtail, Yellow (yellow foxtail; 250 g ai/ha): 100
- Plant response rating, Nutsedge, Yellow (yellow nutsedge; 31 g ai/ha): 0
- Plant response rating, Nutsedge, Yellow (yellow nutsedge; 62 g ai/ha): 15
- Plant response rating, Nutsedge, Yellow (yellow nutsedge; 125 g ai/ha): 65
- Plant response rating, Nutsedge, Yellow (yellow nutsedge; 250 g ai/ha): 65
- Plant response rating, Redstem (Redstem; [1]): 20
- Plant response rating, Redstem (Redstem; [2]): 40
- Plant response rating, Redstem (Redstem; [3]): 45
- Plant response rating, Redstem (Redstem; [4]): 85
- Plant response rating, Ricefield Bulrush (Ricefield Bulrush; [1]): 55
- Plant response rating, Ricefield Bulrush (Ricefield Bulrush; [2]): 55
- Plant response rating, Ricefield Bulrush (Ricefield Bulrush; [3]): 75
- Plant response rating, Ricefield Bulrush (Ricefield Bulrush; [4]): 80

SMILES: CC(c1c(C(F)(F)F)nn(C)c1OC(F)F)S(=O)(=O)c1cccc[n+]1[O-] (stereo not drawn) [Compound 5]
- Sugarcane plant response rating (sugarcane; 62 g ai/ha, scale 0 to 100): 0
- Sugarcane plant response rating (sugarcane; [4]): 7
- Plant response rating, Sugarcane (sugarcane; [5]): 7
- Plant response rating, Redstem (Redstem; [1]): 40
- Plant response rating, Redstem (Redstem; [2]): 80
- Plant response rating, Redstem (Redstem; [3]): 80
- Plant response rating, Redstem (Redstem; [4]): 80
- Plant response rating, Ricefield Bulrush (Ricefield Bulrush; [1]): 0
- Plant response rating, Ricefield Bulrush (Ricefield Bulrush; [2]): 45
- Plant response rating, Ricefield Bulrush (Ricefield Bulrush; [3]): 80
- Plant response rating, Ricefield Bulrush (Ricefield Bulrush; [4]): 85
